Assay results: patent US11649255B2, “Indazoles as hematopoietic progenitor kinase 1 (HPK1) inhibitors and methods using same” (1st Biotherapeutics, Inc., priority 2020, dated 2023)

The compounds below were run against recombinant human HPK1 (Homo sapiens (Human), UniProt Q92918) (assay: HPK1 kinase assay (ADP-Glo)). Settings: 25 μM ATP, MBP substrate.
Assay type: biochemical
Procedure, shortened: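 Activity was read as ADP formed, detected by ADP-Glo luminescence after the reaction of 5 ng recombinant human HPK1 with MBP and ATP (stocks 0.5 μg/μl and 25 μM) for 40 min at 30 °C. Buffer was Tris pH 7.5 with MgCl2, BSA and DTT, with compound in 0.5% DMSO. IC50 came from inhibition curves.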

Sequence of recombinant human HPK1 (Q92918 whole entry): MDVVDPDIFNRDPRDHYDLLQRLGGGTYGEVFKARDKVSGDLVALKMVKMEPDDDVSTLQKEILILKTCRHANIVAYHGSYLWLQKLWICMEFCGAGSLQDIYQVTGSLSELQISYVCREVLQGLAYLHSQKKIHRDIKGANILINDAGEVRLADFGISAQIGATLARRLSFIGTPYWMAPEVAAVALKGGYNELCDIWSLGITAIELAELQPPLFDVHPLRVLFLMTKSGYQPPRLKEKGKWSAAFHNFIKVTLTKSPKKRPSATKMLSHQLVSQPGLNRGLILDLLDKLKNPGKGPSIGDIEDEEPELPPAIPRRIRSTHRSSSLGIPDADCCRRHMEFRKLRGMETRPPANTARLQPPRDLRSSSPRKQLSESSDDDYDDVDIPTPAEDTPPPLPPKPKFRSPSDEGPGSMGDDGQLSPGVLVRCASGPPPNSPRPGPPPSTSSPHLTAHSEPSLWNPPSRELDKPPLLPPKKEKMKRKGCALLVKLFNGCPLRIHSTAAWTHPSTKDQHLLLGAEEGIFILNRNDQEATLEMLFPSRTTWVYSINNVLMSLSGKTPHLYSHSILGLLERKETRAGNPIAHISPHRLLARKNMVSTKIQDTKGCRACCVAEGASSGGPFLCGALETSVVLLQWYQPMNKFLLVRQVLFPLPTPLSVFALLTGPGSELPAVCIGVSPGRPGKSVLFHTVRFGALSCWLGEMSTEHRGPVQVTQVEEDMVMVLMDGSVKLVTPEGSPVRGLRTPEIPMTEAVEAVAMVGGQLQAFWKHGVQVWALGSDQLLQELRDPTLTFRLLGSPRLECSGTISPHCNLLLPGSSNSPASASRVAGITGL

SMILES | IC50
CC(C)c1c(F)cc2[nH]ncc2c1-c1ccc2nc(NC(=O)C3CC3)cn2c1 [Example 246, N-(6-(6-fluoro-5-isopropyl-1H-indazol-4-yl)imidazo[1,2-a]pyridin-2-yl)cyclopropanecarboxamide] | < 0.1 µM
CSc1ccc2[nH]ncc2c1-c1ccc2nc(NC(=O)C3CC3)cn2c1 [Example 247, N-(6-(5-(methylthio)-1H-indazol-4-yl)imidazo[1,2-a]pyridin-2-yl)cyclopropanecarboxamide] | < 0.1 µM
Cc1c(F)cc2[nH]ncc2c1-c1ccc2nc(NC(=O)[C@@H]3C[C@@H]3F)cn2c1 [Example 250, (1S,2S)-2-fluoro-N-(6-(6-fluoro-5-methyl-1H-indazol-4-yl)imidazo[1,2-a]pyridin-2-yl)cyclopropane-1-carboxamide] | < 0.1 µM
COc1c(F)cc2[nH]ncc2c1-c1ccc2nc(NC(=O)C3CC3)cn2c1 [Example 252, N-(6-(6-fluoro-5-methoxy-1H-indazol-4-yl)imidazo[1,2-a]pyridin-2-yl)cyclopropanecarboxamide] | < 0.1 µM
O=C(Nc1cn2cc(-c3c(C(F)F)c(F)cc4[nH]ncc34)ccc2n1)[C@@H]1C[C@@H]1F [Example 253, (1S,2S)-N-(6-(5-(difluoromethyl)-6-fluoro-1H-indazol-4-yl)imidazo[1,2-a]pyridin-2-yl)-2-fluorocyclopropane-1-carboxamide] | < 0.1 µM
O=C(Nc1cn2cc(-c3c(C(F)F)c(F)cc4[nH]ncc34)ccc2n1)C1CC1 [Example 255, N-(6-(5-(difluoromethyl)-6-fluoro-1H-indazol-4-yl)imidazo[1,2-a]pyridin-2-yl)cyclopropanecarboxamide] | < 0.1 µM
O=C(Nc1cn2cc(-c3c(Cl)c(F)c(Cl)c4[nH]ncc34)ccc2n1)[C@@H]1C[C@@H]1F [Example 256, (1S,2S)-N-(6-(5,7-dichloro-6-fluoro-1H-indazol-4-yl)imidazo[1,2-a]pyridin-2-yl)-2-fluorocyclopropane-1-carboxamide] | < 0.1 µM
Cc1c(F)c(C)c2[nH]ncc2c1-c1ccc2nc(NC(=O)[C@@H]3C[C@@H]3F)cn2c1 [Example 257, (1S,2S)-2-fluoro-N-(6-(6-fluoro-5,7-dimethyl-1H-indazol-4-yl)imidazo[1,2-a]pyridin-2-yl)cyclopropane-1-carboxamide] | < 0.1 µM

The next lines start with the values.

IC50 | SMILES
< 0.1 µM | Cc1c(F)cc2[nH]ncc2c1-c1ccc2nc(NC(=O)C3CC3)cn2c1 [Example 245, N-(6-(6-fluoro-5-methyl-1H-indazol-4-yl)imidazo[1,2-a]pyridin-2-yl)cyclopropanecarboxamide]
< 0.1 µM | CCc1c(F)cc2[nH]ncc2c1-c1ccc2nc(NC(=O)C3CC3)cn2c1 [Example 248, N-(6-(5-ethyl-6-fluoro-1H-indazol-4-yl)imidazo[1,2-a]pyridin-2-yl)cyclopropanecarboxamide]
0.101 to 0.5 µM | O=C(Nc1cn2cc(-c3c(C(F)F)ccc4[nH]ncc34)ccc2n1)C1CC1 [Example 249, N-(6-(5-(difluoromethyl)-1H-indazol-4-yl)imidazo[1,2-a]pyridin-2-yl)cyclopropanecarboxamide]
> 1 µM | O=C(Nc1cn2cc(-c3c(CO)c(F)cc4[nH]ncc34)ccc2n1)C1CC1 [Example 251, N-(6-(6-fluoro-5-(hydroxymethyl)-1H-indazol-4-yl)imidazo[1,2-a]pyridin-2-yl)cyclopropanecarboxamide]
> 1 µM | CP(C)(=O)c1c(F)c(Cl)c(-c2ccc3nc(NC(=O)[C@@H]4C[C@@H]4F)cn3c2)c2cn[nH]c12 [Example 259, (1S,2S)-N-(6-(5-chloro-7-(dimethylphosphoryl)-6-fluoro-1H-indazol-4-yl)imidazo[1,2-a]pyridin-2-yl)-2-fluorocyclopropane-1-carboxamide]
< 0.1 µM | Cc1c(F)c(Cl)c2[nH]ncc2c1-c1ccc2nc(NC(=O)[C@@H]3C[C@@H]3F)cn2c1 [Example 260, (1S,2S)-N-(6-(7-chloro-6-fluoro-5-methyl-1H-indazol-4-yl)imidazo[1,2-a]pyridin-2-yl)-2-fluorocyclopropane-1-carboxamide]
